The results in this text go back to ChEMBL document CHEMBL1141099, “Discovery of N-(2,6-dimethylphenyl)-substituted semicarbazones as anticonvulsants: hybrid pharmacophore-based design” (2005).

Test [1] deals with Rattus norvegicus. Put plainly: Number of rats protected at a dose of 30 mg/Kg when given oral at 4 hr upon maximal electroshock seizure; Total number of rats = 4. Format: functional. (In the maximal electroshock model the usual endpoint is tonic extension of the hind limbs.)
Test [2] has as its system Mus musculus. Put plainly: Minimum dose required for anticonvulsant activity when given i.p., at 2 hr in mice upon subcutaneous strychnine seizure. Format: functional.
Test [3] has as its system Rattus norvegicus. In words: Number of rats protected at a dose of 30 mg/Kg when given oral at 2 hr upon maximal electroshock seizure; Total number of rats = 4. Format: functional.
Test [4] relates to Rattus norvegicus. Put plainly: Number of rats protected at a dose of 30 mg/Kg when given oral at 1 hr upon maximal electroshock seizure; Total number of rats = 4. In kind it is functional.
Test [5] concerns Mus musculus. In words: Minimum dose required for anticonvulsant activity when given i.p., at 0.5 hr in mice upon subcutaneous strychnine seizure. Format: functional.
Test [6] deals with Rattus norvegicus. Put plainly: Number of rats protected at a dose of 30 mg/Kg when given oral at 0.5 hr upon maximal electroshock seizure; Total number of rats = 4. Format: functional.
Test [7] concerns Mus musculus. Put plainly: Post treatment activity score for CNS study using a actophotometer at a dose of 100 mg/Kg after 0.5 hr when given i.p., in mice (No. of animals 6); Control (24h before) 372.
The test system of test [8] is Mus musculus. In words: Post treatment activity score for CNS study using a actophotometer at a dose of 100 mg/Kg after 1 h when given i.p., in mice (No. of animals 6); Control (24h before) 372.
Test [9] concerns Mus musculus. Put plainly: Minimum dose required for anticonvulsant activity when given i.p., at 0.5 hr in mice upon neurotoxicity seizure using rotarod test. Format: functional.
Test [10] relates to Mus musculus. Put plainly: Minimum dose required for anticonvulsant activity when given i.p., at 4 hr in mice upon maximal electroshock seizure. Format: functional.
The test system of test [11] is Rattus norvegicus. Put plainly: Number of rats protected at a dose of 30 mg/Kg when given oral at 0.25 hr upon maximal electroshock seizure; Total number of rats = 4. Format: functional.
Test [12] has as its system Mus musculus. In words: Minimum dose required for anticonvulsant activity when given i.p., at 0.5 hr in mice upon subcutaneous pentylenetetrazole seizure. In kind it is functional.
Test [13] deals with Mus musculus. In words: Minimum dose required for anticonvulsant activity when given i.p., at 0.5 hr in mice upon maximal electroshock seizure. In kind it is functional.
Test [14] concerns Rattus norvegicus. Put plainly: Enzymatic activity to assess the increase in level of SGPT at a dose of 30 mg/Kg for 14 days when given p.o., in 6 rats; Control 45.0. In kind it is functional.
For test [15], the system named is Mus musculus. In words: Post treatment activity score for CNS study using a actophotometer at a dose of 100 mg/Kg after 1 hr when given i.p., in mice (No. of animals 6); Control (24h before) 247.
Test [16] concerns Rattus norvegicus. In words: Toxic dose observed for anticonvulsant activity when given i.p., at 2 hr in rat upon neurotoxicity seizure. In kind it is functional. The following applies: ip.
The test system of test [17] is Rattus norvegicus. In words: Toxic dose observed for anticonvulsant activity when given orally at 2 hr in rat upon neurotoxicity seizure. In kind it is functional. The following applies: po.
In test [18] the test system is Mus musculus. In words: Minimum dose required for anticonvulsant activity when given i.p., in mice upon neurotoxicity seizure using rotarod test.
Test [19] has as its system Rattus norvegicus. In words: Enzymatic activity to assess the increase in level of SGOT at a dose of 30 mg/Kg for 14 days when given p.o., in 6 rats; Control 73.1. Format: functional.
Test [20] relates to Rattus norvegicus. In words: Minimum dose required for anticonvulsant activity when given i.p., at 2 hr in mice upon subcutaneous strychnine seizure; Absence of activity. Format: functional, organism-based. The following applies: Mus musculus.
For test [21], the system named is Mus musculus. Put plainly: Post treatment activity score for CNS study using a actophotometer at a dose of 100 mg/Kg after 0.5 hr when given i.p., in mice (No. of animals 6); Control (24h before) 247.
For test [22], the system named is Rattus norvegicus. Put plainly: Effective dose required for anticonvulsant activity when given i.p., at 2 hr in rat upon maximal electroshock seizure. In kind it is functional. The conditions noted are these: ip.
In test [23] the test system is Rattus norvegicus. Put plainly: Minimum dose required for anticonvulsant activity when given i.p., in mice upon subcutaneous picrotoxin seizure; Absence of activity. The conditions noted are these: Mus musculus. In kind it is functional, organism-based.
The test system of test [24] is Rattus norvegicus. In words: Minimum dose required for anticonvulsant activity when given i.p., at 0.5 hr in mice upon subcutaneous pentylenetetrazole seizure; Absence of activity. Format: functional, organism-based. The following applies: Mus musculus.
Test [25] concerns Rattus norvegicus. Put plainly: Number of rats protected at a dose of 30 mg/Kg when given oral at 2 hr upon maximal electroshock seizure; Total number of rats = 4; Absence of activity. Format: functional, organism-based.
The subject of test [26] is Rattus norvegicus. In words: Number of rats protected at a dose of 30 mg/Kg when given oral at 4 hr upon maximal electroshock seizure; Total number of rats = 4; Absence of activity. Format: functional, organism-based.
The subject of test [27] is Rattus norvegicus. In words: Number of rats protected at a dose of 30 mg/Kg when given oral at 0.25 hr upon maximal electroshock seizure; Total number of rats = 4; Absence of activity. Format: functional, organism-based.
The test system of test [28] is Rattus norvegicus. In words: Number of rats protected at a dose of 30 mg/Kg when given oral at 1 hr upon maximal electroshock seizure; Total number of rats = 4; Absence of activity. Format: functional, organism-based.
In test [29] the test system is Mus musculus. In words: Post treatment immobility time for CNS study using Porsolt's swimpool test at a dose of 100 mg/Kg after 1 hr when given i.p., in mice (No. of animals 6); Control (24h before) 131.
Test [30] deals with Rattus norvegicus. In words: Number of rats protected at a dose of 30 mg/Kg when given oral at 0.5 hr upon maximal electroshock seizure; Total number of rats = 4; Absence of activity. Format: functional, organism-based.
The subject of test [31] is Mus musculus. Put plainly: Post treatment activity score for CNS study using a actophotometer at a dose of 100 mg/Kg after 0.5 hr when given i.p., in mice (No. of animals 6); Control (24h before) 201.
For test [32], the system named is Mus musculus. In words: Post treatment activity score for CNS study using a actophotometer at a dose of 100 mg/Kg after 1 hr when given i.p., in mice (No. of animals 6); Control (24h before) 201.

Broadly, the TD50 is the dose at which the toxic effect under study appears in half of the subjects. Low readings indicate greater toxicity, high ones lower toxicity. By ED50 is commonly meant the midpoint of the dose-response relation.

Each structure is given as a SMILES string. Active and inactive are the calls of the source. No cut-off for these calls is given here. Some results are limits rather than exact numbers.

As to `Cc1ccc2[nH]c(O)c(/N=N/C(=O)Nc3c(C)cccc3C)c2c1`, the Activity in the test with Rattus norvegicus [1] worked out at 3; with Rattus norvegicus [3], 3; with Rattus norvegicus [4] it was 3; in the test on Rattus norvegicus [6], 1; in the test with Mus musculus [7], 355; in the test on Mus musculus [8], 368. This compound showed an Activity in the test with Rattus norvegicus [11] of 1. Moreover, the values for the STY seizure in the test on Mus musculus [2] and in the test on Mus musculus [5] were 100 mg/kg and 30 mg/kg, respectively. The NT with Mus musculus [9] worked out at 300 mg/kg. The MES in the test on Mus musculus [10] is 300 mg/kg; with Mus musculus [13], 100 mg/kg. Also, the PTZ seizure with Mus musculus [12] worked out at 300 mg/kg.
Take `O=C1NC(=O)C(c2ccccc2)(c2ccccc2)N1` [PHENYTOIN]: in the test on Rattus norvegicus [14], the SGPT activity worked out at 52.6 units/mL. For the same compound, the Activity with Rattus norvegicus [1] is 3; in the test on Rattus norvegicus [3], 3; with Mus musculus [15], 106; in the test on Rattus norvegicus [4], 3; in the test with Rattus norvegicus [6] it was 4; in the test on Mus musculus [21], 104. Moreover, the Activity in the test with Rattus norvegicus [11] was 1. Further, the values for the TD50 in the test on Rattus norvegicus [16] and in the test on Rattus norvegicus [17] were 42.8 mg/kg and above 500 mg/kg, respectively. Besides, the NT with Mus musculus [18] and with Mus musculus [9] was 100 mg/kg each time. In addition, the SGOT activity in the test on Rattus norvegicus [19] came out at 84.1 units/mL. The STY seizure result with Rattus norvegicus [20] was “inactive”. In addition, the MES in the test on Mus musculus [10] and in the test on Mus musculus [13] was 30 mg/kg in each case. This compound also came in with an ED50 with Rattus norvegicus [22] of 6.48 mg/kg. In addition, in the test on Rattus norvegicus [23], the PIC seizure entry was “inactive”. Besides, in the test on Rattus norvegicus [24], the PTZ seizure entry was “inactive”.
`NC(=O)N1c2ccccc2C=Cc2ccccc21` [CARBAMAZEPINE]: the result in the test with Rattus norvegicus [25], in the test with Rattus norvegicus [26], in the test on Rattus norvegicus [27], with Rattus norvegicus [28] and in the test on Rattus norvegicus [30] was inactive. Moreover, in the test on Rattus norvegicus [20], the STY seizure result was “inactive”. This compound also registered an Activity in the test on Mus musculus [29] of 207. This compound also came in with an NT with Mus musculus [9] of 100 mg/kg. Besides, the figures for the MES in the test with Mus musculus [10] and in the test on Mus musculus [13] were 100 mg/kg and 30 mg/kg, respectively. The PTZ seizure in the test on Mus musculus [12] came out at 100 mg/kg.
As to `Cc1cccc(C)c1NC(=O)/N=N/c1c(O)[nH]c2ccc(Br)cc12`, the Activity turned out to be 0 with Rattus norvegicus [1]; 2 in the test on Rattus norvegicus [3]; 0 in the test with Rattus norvegicus [4]; 1 with Rattus norvegicus [6]; 172 in the test on Mus musculus [31]; 1 in the test with Rattus norvegicus [11]. For the same compound, the Activity in the test with Mus musculus [32] is 176. Further, the STY seizure with Mus musculus [2] amounted to 100 mg/kg; in the test with Mus musculus [5], 30 mg/kg. In the test on Mus musculus [9], this compound registered an NT of 300 mg/kg. Also, the MES came out at 300 mg/kg in the test with Mus musculus [10] and 100 mg/kg in the test on Mus musculus [13].
